In patent US10800789B2, “Antiviral compounds” (Gilead Pharmasset LLC, priority 2012, dated 2020):
Like-named read-outs stand apart in the source and are kept apart here.

Experiments:
[1] = tested on: stable HCV 1b RLuc replicon cells (dicistronic genotype 1b Con1 replicon); assay: Renilla luciferase HCV replicon reporter assay, genotype 1b; assay type: cell-based; conditions: Hepatitis C virus, 72 h, stable 1b Con1 RLuc replicon cells, 72 hours; read-out: 1b
Summary of the method: (§1)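 Cells carrying the stable or transiently transfected (Huh-Lunet) dicistronic RLuc replicons received 3-fold serial compound dilutions from 10 mM DMSO stocks. After 72 h, cells were lysed and Renilla luciferase read. DMSO served as the no-inhibition control and ITMN-191 above 100×EC50 as the positive control; EC50 by non-linear regression.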

[2] = tested on: stable HCV 1a RLuc replicon cells (dicistronic genotype 1a H77 replicon); assay: Renilla luciferase HCV replicon reporter assay, genotype 1a; assay type: cell-based; conditions: Hepatitis C virus, 72 h, stable 1a H77 RLuc replicon cells
Summary of the method: as §1

[3] = tested on: Q30R in genotype 1a NS5A (1a Pi-Rluc replicon, Huh-7-derived cured-51 cells); assay: Replicon assay against resistance mutant 1a Q30R; assay type: cell-based, HCV; conditions: Hepatitis C virus
Protocol: Antiviral potency (EC50) was determined using a Renilla luciferase (RLuc)-based HCV replicon reporter assay. To perform the assay for genotype 1 and 2a JFH-1, stable HCV 1a RLuc replicon cells (harboring a dicistronic genotype 1a H77 replicon that encodes a RLuc reporter), stable HCV 1b RLuc replicon cells (harboring a dicistronic genotype 1b Con1 replicon that encodes a RLuc reporter), or stable HCV 2a JFH-1 Rluc replicon cells (harboring a dicistronic genotype 2a JFH-1 replicon that encodes a RLuc reporter; with L31 present in NS5A) were dispensed into 384-well plates for EC50 assays. To perform the assay for genotype 2a (with M31 present in NS5A) or 2b, NS5A chimeric genotype 2a JFH-1 replicons that encodes a RLuc-Neo reporter and either genotype 2a J6 strain NS5A gene or genotype 2b MD2b-1 strain NS5A gene (both with M31 present) respectively, were either transiently transfected (t) into Huh-Lunet cells or were established as stably replicating replicon cells (s) is provided. Either cells were dispensed into 384-well plates for EC50 assays. To perform the assay for genotype 3 and 4, NS5A chimeric genotype 1b Con1 replicons that encodes a Pi-RLuc reporter and either genotype 3a S52 strain NS5A gene or genotype 4a ED43 strain NS5A gene respectively, were transiently transfected (t) into Huh-Lunet cells, which were subsequently dispensed into 384-well plates. Compounds were dissolved in DMSO at a concentration of 10 mM and diluted in DMSO either manually or using an automated pipeting instrument. Serially 3-fold diluted compounds were either manually mixed with cell culture media and added to the seeded cells or directly added to the cells using an automated instrument. DMSO was used as a negative (solvent; no inhibition) control, and the protease inhibitor ITMN-191 was included at a concentration>100×EC50 as a positive control. 72 hours later, cells were lysed and Renilla luciferase activity quantified as recommended by the manufacturer (Promega-Madison, Wis.). Non-linear regression was performed to calculate EC50 values.
To determine the antiviral potency (EC50) against resistance mutants, resistance mutations, including M28T, Q30R, Q30H, Q30E, L31M, Y93C, Y93H, and Y93N in genotype 1a NS5A, Y93H and L31V/Y93H in genotype 1b NS5A, and Y93H for in genotype 3a NS5A, were introduced individually into either 1a Pi-Rluc or 1b Pi-Rluc replicons by site directed mutagenesis. Replicon RNA of each resistant mutant was transiently transfected into Huh-7-derived cured-51 cells and antiviral potency was determined on these transfected cells as described above.

[4] = tested on: stable HCV 2a JFH-1 Rluc replicon cells (L31 present in NS5A); assay: Renilla luciferase HCV replicon reporter assay, genotype 2a JFH-1; assay type: cell-based; conditions: Hepatitis C virus
Summary of the method: as §1

[5] = tested on: NS5A chimeric genotype 2a JFH-1 replicon with genotype 2a J6 strain NS5A gene (M31 present); assay: Replicon assay, genotype 2a J6 NS5A chimera; assay type: cell-based, HCV; conditions: Hepatitis C virus
Summary of the method: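 First, 3-fold serial dilutions of compound went onto replicon cells, DMSO serving as no-inhibition control and ITMN-191 at >100×EC50 as positive control. Next came 72 h incubation, lysis and Renilla luciferase measurement. Finally, EC50 was calculated by non-linear regression; replicons covered genotypes 1a H77, 1b Con1, 2a JFH-1 (L31) and J6-NS5A chimera (M31).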

[6] = tested on: NS5A chimeric genotype 2a JFH-1 replicon with genotype 2b MD2b-1 strain NS5A gene (M31 present); assay: Replicon assay, genotype 2b NS5A chimera; assay type: cell-based, HCV; conditions: Hepatitis C virus
Summary of the method: as §1

[7] = tested on: NS5A chimeric genotype 1b Con1 replicon with genotype 3a S52 strain NS5A gene; assay: Replicon assay, genotype 3a NS5A chimera; assay type: cell-based, HCV; conditions: Hepatitis C virus
[8] = tested on: NS5A chimeric genotype 1b Con1 replicon with genotype 4a ED43 strain NS5A gene; assay: Replicon assay, genotype 4a NS5A chimera; assay type: cell-based, HCV; conditions: Hepatitis C virus
[9] = read-out: 2a JFH (nM), genotype 2a JFH-1 replicon (L31 in NS5A), stable cells
[10] = read-out: 2a JFH, stable 2a JFH-1 Rluc replicon cells, L31 in NS5A, activity range
[11] = read-out: 2a J6 (t) (nM), genotype 2a J6 NS5A chimeric replicon (M31), transiently transfected (t) into Huh-Lunet cells
[12] = read-out: 2a J6 (t), transiently transfected (t) into Huh-Lunet cells, activity range
[13] = 2BS, read-out: 2b (s), stably replicating replicon cells (s), activity range
[14] = read-out: 2b (s) (nM), genotype 2b MD2b-1 NS5A chimeric replicon (M31), stably replicating replicon cells (s)
[15] = read-out: 3a (s) (nM), genotype 3a NS5A chimeric replicon, stable replicon cells (s)
[16] = read-out: 3a (s), (s), activity range
[17] = read-out: 4a (s) (nM), genotype 4a NS5A chimeric replicon, stable replicon cells (s)
[18] = read-out: 4a (s), (s), activity range

Row | SMILES | EC50 [1] | EC50 [2] | EC50 ([2]; activity range) | EC50 ([3]; read-out: 1a Q30R) | EC50 ([3]; read-out: 1a Q30R (nM)) | EC50 [4, 9] | EC50 [4, 10] | EC50 [5, 11] | EC50 [5, 12] | EC50 [6, 13] | EC50 [6, 14] | EC50 [7, 15] | EC50 [7, 16] | EC50 ([7]; read-out: 3a (t) (nM), genotype 3a NS5A chimeric replicon, transiently transfected (t)) | EC50 ([7]; read-out: 3a (t), transiently transfected (t) into Huh-Lunet cells, activity range) | EC50 [8, 17] | EC50 [8, 18]
1 | COC[C@H]1C[C@@H](c2ncc(-c3ccc4c(c3)COc3cc5c(ccc6nc([C@@H]7C[C@H](COC)CN7C(=O)[C@H](NC(=O)OC)c7ccccc7)[nH]c65)cc3-4)[nH]2)N(C(=O)[C@H](NC(=O)OC)c2ccccc2)C1 [EY, Methyl {(1R)-2-[(2S,4S)-2-(5-{2-[(2S,4S)-1-{(2R)-2-[(methoxycarbonyl)amino]-2-phenylacetyl}-4-(methoxymethyl)pyrrolidin-2-yl]-1,11-dihydroisochromeno[4′,3′:6,7]naphtho[1,2-d]imidazol-9-yl}-1H-imidazol-2-yl)-4-(methoxymethyl)pyrrolidin-1-yl]-2-oxo-1-phenylethyl}carbamate] | 0.049 nM | 0.029 nM | < 0.1 nM | < 0.1 nM | 0.057 nM | 0.029 nM | < 0.1 nM | 0.008 nM | < 0.1 nM | < 0.1 nM | 0.035 nM | 0.087 nM | < 0.1 nM | 0.118 nM | 0.1 to 0.999 nM | 0.025 nM | < 0.1 nM
2 | COC(=O)N[C@H](C(=O)N1[C@@H](C)CC[C@H]1c1ncc(-c2ccc3c(c2)COc2cc4c(ccc5nc([C@@H]6CC[C@H](C)N6C(=O)[C@H](NC(=O)OC)c6ccccc6)[nH]c54)cc2-3)[nH]1)C(C)C [FB, Methyl {(1R)-2-[(2S,5S)-2-(9-{2-[(2S,5S)-1-{(2S)-2-[(methoxycarbonyl)amino]-3-methylbutanoyl}-5-methylpyrrolidin-2-yl]-1H-imidazol-5-yl}-1,11-dihydroisochromeno[4′,3′:6,7]naphtho[1,2-d]imidazol-2-yl)-5-methylpyrrolidin-1-yl]-2-oxo-1-phenylethyl}carbamate] | 0.014 nM | 0.009 nM | < 0.1 nM | < 0.1 nM | 0.077 nM | 0.013 nM | < 0.1 nM | 0.105 nM | 0.1 to 0.999 nM | < 0.1 nM | 0.081 nM | 0.026 nM | < 0.1 nM | – | – | 0.01 nM | < 0.1 nM
3 | COC[C@H](NC(=O)OC)C(=O)N1[C@@H](C)CC[C@H]1c1nc2ccc3cc4c(cc3c2[nH]1)OCc1cc(-c2cnc([C@@H]3CC[C@H](C)N3C(=O)[C@@H](NC(=O)OC)C(C)C)[nH]2)ccc1-4 [FE, Methyl [(2S)-1-{(2S,5S)-2-[5-(2-{(2S,5S)-1-[N-(methoxycarbonyl)-O-methyl-L-seryl]-5-methylpyrrolidin-2-yl}-1,11-dihydroisochromeno[4′,3′:6,7]naphtho[1,2-d]imidazol-9-yl)-1H-imidazol-2-yl]-5-methylpyrrolidin-1-yl}-3-methyl-1-oxobutan-2-yl]carbamate] | 0.015 nM | 0.012 nM | < 0.1 nM | 0.1 to 0.999 nM | 0.253 nM | 0.016 nM | < 0.1 nM | 0.122 nM | 0.1 to 0.999 nM | 0.1 to 0.999 nM | 0.463 nM | 0.072 nM | < 0.1 nM | – | – | 0.012 nM | < 0.1 nM
